Measured values as given in article PMC8677773, “Comprehensive exploration of chemical space using trisubstituted carboranes” (Scientific Reports, 2021).

System: recombinant rabies virus strain 1088 expressing gaussia luciferase (1088/GLuc)
Assay: microbe, parasite or virus in culture
Type: cell-based
Settings: Lyssavirus rabies, N2a, 72 h, read-out: RABV IC50 (concentration required to inhibit the relative light units by 50%)

NC(=O)c1nc(F)c[nH]c1=O [Favipiravir] gave an IC50 of 38 µM.
